Source: PubChem BioAssay AID463199 (Broad Institute, 2010)
The source made the active and inactive calls.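 How the source made its calls: active means AC50, the dose giving half-maximal effect, exceeds a fixed cutoff for a compound that rescues yeast growth under heat; inactive means the rest, inconclusive results apart.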

Test system: S. cerevisiae Burl-1 ts mutant growth, BacTiter-Glo, 38.5C 24 h
Assay: restored growth of temperature-sensitive Burl-1 yeast – whole organism, S. cerevisiae, Burl-1 ts mutant, luminescence, counter-screen for SUMOylation pathway inhibitor project, dose response (AID 463199)

Row | Compound | AC50
1 | CCC(C)[C@H](NC(=O)OC(C)(C)C)C(=O)NCC1CCC(C(=O)N[C@@H](Cc2ccccc2)C(=O)O)CC1 (stereo partly specified) | > 42 µM (inactive)
2 | CCN(CC)S(=O)(=O)c1cc(NC(=O)COC(=O)CCc2nc3ccccc3s2)ccc1C | > 42 µM (inactive)
3 | CCCNc1nc2ccccc2c(=O)[nH]1 | > 42 µM (inactive)
4 | Cc1ccc(S(=O)(=O)NCCS(=O)(=O)N2CCN(c3ccc(F)cc3)CC2)cc1 | > 42 µM (inactive)
5 | Cc1ccc(CSCCNC(=O)c2ccc(NS(C)(=O)=O)cc2)cc1 | > 42 µM (inactive)
6 | CC(=O)/C(N)=N/Nc1cccc(Cl)c1 | > 42 µM (inactive)
7 | CCn1c(C)c(C(C)=O)c(N2CCN(c3ccc(F)cc3)CC2)nc1=S | > 42 µM (inactive)
8 | COc1ccccc1N1CCN(C(=O)c2ccc(-c3ccccc3)cc2)CC1 | > 42 µM (inactive)
9 | CSc1nncc(/C(C)=N\Nc2cccc(C)c2)n1 | > 42 µM (inactive)
10 | Cn1cnnc1-c1cccc(NS(=O)(=O)c2ccc(N3CCCC3=O)cc2)c1 | > 42 µM (inactive)
11 | COc1ccc(-n2c3c(cc(C(=O)NCC(=O)c4ccccc4)c2=O)C(=O)CC(C)(C)C3)cc1 | > 42 µM (inactive)
12 | O=C(O)c1ccc(COc2c(F)c(F)cc(F)c2F)cc1 | > 42 µM (inactive)
13 | CC1CCN(C(=O)c2[nH]cnc2C(=O)NCC(=O)OCc2ccccc2)CC1 | > 42 µM (inactive)
14 | COc1ccc(N=C2SC(C(=O)O)CC(=O)N2Cc2ccc(OC)c(OC)c2)cc1 (stereo unspecified) | > 42 µM (inactive)
15 | COc1ccc(N2CCN(CCCNC(=O)C(=O)c3c(C)[nH]c4ccccc34)CC2)cc1 | > 21 µM (inactive)
16 | CCOC(=O)c1ccc(NC(=O)CC2Sc3ncnn3C2=O)cc1 (stereo unspecified) | > 42 µM (inactive)
17 | CCn1c(SCc2nc3ccccc3[nH]2)nnc1-c1cccnc1 | > 42 µM (inactive)
18 | O=C(CCc1ccccc1)NNC(=O)c1ccc(Br)cc1 | > 42 µM (inactive)
19 | O=C(C1CCC(CNc2c(N3CCCCC3)c(=O)c2=O)CC1)N1CCN(C2CCCCC2)CC1 (stereo unspecified) | > 42 µM (inactive)
20 | NC(=O)CC(NC(=S)NCc1ccccc1)C(=O)O (stereo unspecified) | > 42 µM (inactive)
21 | O=S(=O)(Cc1ccccc1)N1CCN(c2ncccn2)CC1 | > 42 µM (inactive)
22 | Cc1cc(-c2ccccc2)n(-c2ccc(C(=O)NC(C)C)cc2)n1 | > 42 µM (inactive)
23 | O=S(=O)(NCC1CCCO1)c1cc(Cl)ccc1Br (stereo unspecified) | > 42 µM (inactive)
24 | COc1ccc2c(c1)c(CC(=O)OCC(N)=O)c(C)n2C(=O)c1ccc(Cl)cc1 | > 42 µM (inactive)
25 | CCOC(=O)NNC(=O)CCn1c2c(c3ccccc31)CCCC2 | > 42 µM (inactive)
26 | O=C(CC(c1ccccc1)c1ccccc1)NCCOCc1ccccc1 | > 42 µM (inactive)

Row | Compound | AC50
27 | COc1cc2c(=O)n(-c3ccc(C)cc3)c(=O)n(CC(=O)c3ccc4c(c3)OCO4)c2cc1OC | > 42 µM (inactive)
28 | COC(=O)c1cc2occc2n1Cc1nc(-c2ccccc2C)oc1C | > 42 µM (inactive)
29 | COc1ccc(C(=O)CC(=O)C(=O)Nc2ccc(C)c(Cl)c2)cc1 | > 42 µM (inactive)
30 | O=C(CSc1nc(O)cc(=O)n1-c1ccccc1)NC1CCCCC1 | > 42 µM (inactive)
31 | CN1c2ccccc2-c2nc3ccccc3n2C1c1ccncc1 (stereo unspecified) | > 42 µM (inactive)
32 | Cc1nc(-c2cccc(S(=O)(=O)N3CCOCC3)c2)cs1 | > 42 µM (inactive)
33 | O=C(NC(=S)NNC(=O)c1ccccc1O)c1cccc([N+](=O)[O-])c1 | > 42 µM (inactive)
34 | O=C(CN1CCN(c2ccccc2F)CC1)Nc1nnc(C(F)(F)F)s1 | > 42 µM (inactive)
35 | CC1(C)CC(=O)C(CC2CCCCC2=O)C(=O)C1 (stereo unspecified) | > 42 µM (inactive)
36 | COc1ccc(S(=O)(=O)N2CCOC2CNC(=O)C(=O)NCc2ccncc2)cc1C (stereo unspecified) | > 42 µM (inactive)
37 | CCOc1ccc(NC(=O)CNc2ccc(C)cc2Cl)cc1 | > 42 µM (inactive)
38 | CCC(C)N1C(=O)CN(C2CCCCCC2)C(=O)C1c1ccccc1F (stereo unspecified) | > 42 µM (inactive)
39 | Cc1sc(NC(=O)c2ccco2)c(C(c2ccc(F)cc2)N2CCN(C)CC2)c1C (stereo unspecified) | > 42 µM (inactive)
40 | CCOc1c(P(=S)(N(C)C)N(C)C)c(C)nn1-c1ccccc1 | > 42 µM (inactive)
41 | CN(C)/C=C/C(=O)c1ccncc1 | > 42 µM (inactive)
42 | COc1ccccc1CC(=O)N1CCOCC1 | > 42 µM (inactive)
43 | CC(OC(=O)c1cnccn1)C(=O)c1ccccc1 (stereo unspecified) | > 42 µM (inactive)
44 | CC(C)(C)C1c2[nH]c3ccccc3c2CCN1Cc1cccc(OCCO)c1 (stereo unspecified) | > 42 µM (inactive)
45 | CN(C)c1cccc(C(=O)Nc2cc(C(F)(F)F)ccc2-n2cnc3ccccc32)c1 | > 42 µM (inactive)
46 | COc1ccc(-n2c(SCC(=O)NCC3CCCO3)nc3c(c2=O)SCC3)cc1OC (stereo unspecified) | > 42 µM (inactive)
47 | Cc1cccc(CS(=O)(=O)Cc2ccc(C(=O)NCC3CCCO3)o2)c1 (stereo unspecified) | > 42 µM (inactive)
48 | O=C(NCCCN1CCN(c2ccccc2F)CC1)Nc1ccccc1[N+](=O)[O-] | 25.4 µM
49 | O=C1NC(=O)N(Cc2ccccc2)C1=O | > 42 µM (inactive)
50 | NS(=O)(=O)c1ccc(CCNC(=O)CN2CCN(c3ccc(F)cc3)CC2)cc1 | > 42 µM (inactive)
51 | CCOc1ccc(S(=O)(=O)N2CCN(C(=O)CN3C(=O)NC4(CCCC4)C3=O)CC2)cc1 | > 42 µM (inactive)
52 | CCN(CC)C(=O)CSC(Nc1cccc(F)c1)=C(C#N)C#N | > 42 µM (inactive)

Row | Compound | AC50
53 | Nc1cc(=O)[nH]c(=O)n1CCc1ccccc1 | > 42 µM (inactive)
54 | COCCN(C(=O)C1CC1)c1nnc(-c2ccc(C)cc2)s1 | > 42 µM (inactive)
55 | COCCn1c(SCC(=O)NCc2cccs2)nnc1-c1ccc(OC)cc1 | > 42 µM (inactive)
56 | COc1ccc(-c2csc(NC(=O)CS(=O)(=O)c3ccc(F)cc3)n2)cc1OC | > 42 µM (inactive)
57 | CCc1nc2ccccc2c(C(=O)OC2CCCCC2=O)c1C (stereo unspecified) | > 42 µM (inactive)
58 | Fc1cccc(NC(=S)N2CCn3cccc3C2c2cccnc2)c1 (stereo unspecified) | > 42 µM (inactive)
59 | CNC(=O)c1ccccc1S(=O)c1ccccc1COC(C)=O (stereo unspecified) | > 42 µM (inactive)
60 | Cc1nn(C)c(C)c1-c1c(C#N)c(N)nc2c1CCCCCC2 | > 42 µM (inactive)
61 | CCCNC(=O)Cn1sc2nc(C)cc(C)c2c1=O | > 42 µM (inactive)
62 | CC(C)C(NC(=S)Nc1ccccc1)C(=O)O (stereo unspecified) | > 42 µM (inactive)
63 | Cn1nc(C(C)(C)C)c([N+](=O)[O-])c1C(=O)Nc1ccccc1 | > 42 µM (inactive)
64 | O=C(COc1cnc2ccccc2n1)NCCC1=CCCCC1 | > 42 µM (inactive)
65 | Nc1ncnc2nc(SCC(=O)N3CCN(c4ccccc4)CC3)[nH]c12 | > 42 µM (inactive)
66 | Cc1sc2ncnc(N3CCC(C(=O)NNC(=O)COc4ccccc4F)CC3)c2c1C | > 42 µM (inactive)
67 | CCN(CC)c1ncnc2ccc(Br)cc12 | > 42 µM (inactive)
68 | COc1ccc2c(c1)[C@@]13CCC=C[C@H]1[C@@H](C2)NCC3 | > 42 µM (inactive)
69 | O=S(=O)(NCc1cccc(C(F)(F)F)c1)NCc1ccccc1F | > 42 µM (inactive)
70 | Cc1ccc(NC(=O)COc2ccccc2C(=O)NCCN(C)C)cc1 | > 42 µM (inactive)
71 | Cc1cc(C)c(S(=O)(=O)c2cccc(C)c2C)c(=O)[nH]1 | > 42 µM (inactive)
72 | Cc1cc(C)cc(C(=O)N2CCC3(CC2)NCCc2[nH]cnc23)c1 | > 42 µM (inactive)
73 | CC(C)C(OC(=O)CN1C(=O)COc2ccccc21)C(=O)NC1CCCC1 (stereo unspecified) | > 42 µM (inactive)
74 | CN(C)c1ccc2nc3ccc(=[N+](C)C)cc-3sc2c1 | > 42 µM (inactive)
75 | CC(=O)N(C(C)=O)C1=C(C#N)C2(CCCCC2)Cc2ccccc21 | > 42 µM (inactive)
76 | COc1ccc(NC(=O)CCCc2ccccc2)cc1OC | 9.43 µM
77 | Cc1nc(N2CCN(c3ccccn3)CC2)c2c(C)c(C(=O)N3CCN(c4ccccc4F)CC3)sc2n1 | > 42 µM (inactive)
78 | CC(=O)N/C(=C\c1ccccc1)C(=O)OCC(=O)c1ccccc1 | > 42 µM (inactive)

Row | Compound | AC50
79 | Cn1c(NCc2ccco2)nc2c1c(=O)n(Cc1ccc(Cl)cc1)c(=O)n2C | > 42 µM (inactive)
80 | CCCOc1ccccc1C1NC(=O)NC(C)=C1C(=O)OCc1ccccc1 (stereo unspecified) | > 42 µM (inactive)
81 | CCOC(=O)c1oc2cc(OC(C)=O)ccc2c(=O)c1-c1ccc(OC)c(OC)c1 | > 42 µM (inactive)
82 | O=C(CSc1cccc[n+]1[O-])N1CCc2ccccc21 | > 42 µM (inactive)
83 | O=c1c2c(ncn1Cc1ccccc1)nc1n2CCC1 | > 42 µM (inactive)
84 | CCOC(=O)c1ccc(NC(=O)NCc2ccncc2)cc1 | > 42 µM (inactive)
85 | Cn1c(CN2CCOCC2)nnc1SCC(N)=O | > 42 µM (inactive)
86 | CC(Oc1ccc([N+](=O)[O-])cc1)C(=O)NCCCN1CCOCC1 (stereo unspecified) | > 42 µM (inactive)
87 | Cc1ccccc1NC(=O)c1ccccc1NC(=O)c1ccco1 | > 42 µM (inactive)
88 | CC(=O)N1CCN(CC(O)COc2ccc(OCc3ccccc3)cc2)CC1 (stereo unspecified) | > 42 µM (inactive)
89 | N/C(=N\OC(=O)CCC1CCCC1)c1ccc([N+](=O)[O-])cc1 | > 42 µM (inactive)
90 | N#CC(C#N)=CN=c1ccn(Cc2ccc(Cl)cc2Cl)cc1 | > 42 µM (inactive)
91 | CC1CCN(CCCCOc2ccc(F)cc2)CC1 | > 42 µM (inactive)
92 | Cc1cccc(/C=N/NC(=O)Cc2cccs2)c1 | > 42 µM (inactive)
93 | O=C(O)c1cccc(NC(=O)c2cccc(S(=O)(=O)Nc3cccc([N+](=O)[O-])c3)c2)c1 | > 42 µM (inactive)
94 | CC(C)c1onc(C(=O)N(C)Cc2ccccc2)c1[N+](=O)[O-] | > 42 µM (inactive)
95 | Cc1c(C2(O)CCCCC2)[nH]c2ccc(C#N)cc12 | > 42 µM (inactive)
96 | Cc1cccn2c(=O)c3cc(C(=O)NCCc4ccccc4)sc3nc12 | > 42 µM (inactive)
97 | Nc1ccc(S(=O)(=O)NNC(=O)C(=O)NNc2ccccc2)cc1 | > 42 µM (inactive)
98 | CC(=O)Nc1ccccc1C(=O)C(=O)Nc1ccc(C(=O)NCC2CCCO2)cc1 (stereo unspecified) | > 42 µM (inactive)
99 | CS(=O)(=O)N1CCC(Oc2ccccc2C(=O)N2CCNC(=O)C2)CC1 | > 42 µM (inactive)
100 | Oc1c(Cl)cc(Cl)c(Cl)c1Cc1c(O)c(Cl)cc(Cl)c1Cl | > 42 µM (inactive)
101 | O=C(NCc1ccccn1)C1Nc2ccc(C(F)(F)F)cc2C2C=CCC12 (stereo unspecified) | > 42 µM (inactive)
